Like-named read-outs stand apart in the source and are kept apart here. One block for each molecule: values may come before it.
Experiments:
[1] = tested on: MDA-MB-231 breast cancer cells; test: Cell rounding assay in MDA-MB-231 cells (endogenous S1P2); type: cell-based; settings: for cell rounding response: serum-starved MDA-MB-231 cells, S1P 1 μM
Experimental: Cell rounding was performed essentially as described. […] After 15 min, the cells were fixed and stained with fluorescein phalloidin and DAPI for cell morphology. The number of cells with retracted neurites and the number of total cells were counted in three separate fields for each sample, and the percentage of cells with retracted neurites was calculated.

ROS in C6 cells = test: ROS assay (CellROX) in C6 cells; type: cell-based, rat; settings: for effect on CYM-5478-mediated attenuation of cisplatin-induced ROS: cisplatin + CYM-5478; for effect on cisplatin-induced ROS: co-administered with cisplatin, CYM-5478 10 μM
Experimental: Cells were plated in clear-bottom, black-walled 96-well plates at ~50% confluence, incubated overnight, then treated overnight with cisplatin in the presence of the indicated compounds. All conditions were vehicle-controlled (0.1% DMSO). […] Cells were photographed with a 20X objective lens, 3 fields per well, 3 wells per condition. Quantification was performed using ImageJ software, but dividing the total integrated density of CellROX® labelling by the number of cells per Hoechst staining.

S1P4 = biological target: T1, S1P4 (Homo sapiens, UniProt O95977); test: TGFα-shedding assay, S1P4; type: cell-based; settings: for EC50: HEK293 cells, ligand 1 hour
T1 construct: expressed in transfected cells; host or cells: HEK293
T1 sequence (O95977 1-384): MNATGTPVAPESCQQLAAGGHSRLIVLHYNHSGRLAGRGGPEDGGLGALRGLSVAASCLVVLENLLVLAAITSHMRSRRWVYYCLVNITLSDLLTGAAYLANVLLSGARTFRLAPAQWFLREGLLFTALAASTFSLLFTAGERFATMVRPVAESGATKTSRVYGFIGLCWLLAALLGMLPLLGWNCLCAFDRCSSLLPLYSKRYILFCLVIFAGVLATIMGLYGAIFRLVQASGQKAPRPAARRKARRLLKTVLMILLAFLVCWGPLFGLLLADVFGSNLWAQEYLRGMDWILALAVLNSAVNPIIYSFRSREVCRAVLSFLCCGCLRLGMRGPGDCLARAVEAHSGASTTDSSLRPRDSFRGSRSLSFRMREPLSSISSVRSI
Experimental: (§1) The TGFα-shedding assay was performed essentially as described. Briefly, HEK293 cells were co-transfected with the indicated receptor expression construct and TGFα-alkaline phosphatase using Lipofectamine 2000 reagent (cat #11668019, Thermo Fisher), collected by trypsinization, washed with phosphate-buffered saline, and seeded into 96-well plates in Hank’s Balanced Saline Solution (HBSS). To improve assay sensitivity, S1P1 and S1P2 cells were co-transfected with Gαq/i1 chimeric protein, and S1P4 and S1P5 were co-transfected with Gαq/16, as previously described. Cells were stimulated with ligand for 1 hour, then alkaline phosphatase activity was detected in cells and in the supernatant. Receptor activity (% shedding) was defined as alkaline phosphatase activity of the supernatant/total alkaline phosphatase activity (cells + supernatant). Data processing and statistical analyses were performed with GraphPad Prism 6.

S1P1 = biological target: T2, S1P1 (Homo sapiens, UniProt P21453); test: TGFα-shedding assay, S1P1; type: cell-based; settings: for EC50: HEK293 cells, ligand 1 hour
T2 construct: expressed in transfected cells; host or cells: HEK293
T2 sequence (P21453 whole entry, species assumed): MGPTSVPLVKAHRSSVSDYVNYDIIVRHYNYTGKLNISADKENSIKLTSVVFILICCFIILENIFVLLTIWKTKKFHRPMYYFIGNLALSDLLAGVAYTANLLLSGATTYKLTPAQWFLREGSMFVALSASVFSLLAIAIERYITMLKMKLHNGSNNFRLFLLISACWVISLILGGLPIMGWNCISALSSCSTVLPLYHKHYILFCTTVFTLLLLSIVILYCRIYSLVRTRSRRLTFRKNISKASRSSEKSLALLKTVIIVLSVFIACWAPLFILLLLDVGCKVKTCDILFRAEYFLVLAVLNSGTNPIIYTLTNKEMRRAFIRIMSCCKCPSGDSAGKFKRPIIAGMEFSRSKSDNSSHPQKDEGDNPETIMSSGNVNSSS
Experimental: as §1

S1P3 = biological target: T3, S1P3 (Homo sapiens, UniProt Q99500); test: TGFα-shedding assay, S1P3; type: cell-based; settings: for EC50: HEK293 cells, ligand 1 hour
T3 construct: expressed in transfected cells; host or cells: HEK293
T3 sequence (Q99500 whole entry, species assumed): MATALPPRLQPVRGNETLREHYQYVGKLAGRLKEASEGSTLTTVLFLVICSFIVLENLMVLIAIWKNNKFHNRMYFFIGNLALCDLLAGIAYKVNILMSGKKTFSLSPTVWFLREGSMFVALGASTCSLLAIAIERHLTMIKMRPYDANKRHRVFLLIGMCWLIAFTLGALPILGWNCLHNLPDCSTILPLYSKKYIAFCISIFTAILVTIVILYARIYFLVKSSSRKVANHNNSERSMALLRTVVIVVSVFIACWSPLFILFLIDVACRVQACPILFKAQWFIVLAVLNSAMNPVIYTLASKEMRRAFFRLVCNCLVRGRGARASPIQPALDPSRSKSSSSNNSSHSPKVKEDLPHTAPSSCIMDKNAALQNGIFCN
Experimental: as §1

S1P1-EGFP = biological target: T4, S1P1-EGFP (Homo sapiens, UniProt P21453); test: Receptor internalization assay, S1P1-EGFP; type: cell-based; settings: 1 μM ligand
T4 construct: expressed in transfected cells
T4 sequence (P21453 whole entry): as the sequence (P21453 whole entry, species assumed) above

[2] = tested on: NOX3 complex (Nox3, NoxO1, NoxA1); test: NOX3 activity assay (luminol) in transfected HEK293 cells; type: cell-based; settings: HEK293, S1P 1 μM, 15 minutes
Experimental: NOX3 activity was determined as previously described. […] Indicated values were taken 15 minutes following stimulation.

S1P2 [3] = biological target: T5, S1P2 (Homo sapiens, UniProt O95136); test: TGFα-shedding assay, S1P2; type: cell-based
T5 construct: expressed in transfected cells; host or cells: HEK293
T5 sequence (O95136 whole entry, species assumed): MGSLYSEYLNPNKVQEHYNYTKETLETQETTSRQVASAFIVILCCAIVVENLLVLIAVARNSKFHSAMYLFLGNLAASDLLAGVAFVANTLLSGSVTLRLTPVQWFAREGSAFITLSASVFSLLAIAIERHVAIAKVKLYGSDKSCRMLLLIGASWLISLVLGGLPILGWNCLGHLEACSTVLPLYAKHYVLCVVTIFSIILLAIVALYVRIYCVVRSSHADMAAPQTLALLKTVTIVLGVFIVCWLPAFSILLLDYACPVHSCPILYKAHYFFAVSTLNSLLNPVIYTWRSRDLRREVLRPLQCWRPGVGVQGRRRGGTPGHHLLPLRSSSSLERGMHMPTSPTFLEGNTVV
Experimental: as §1

S1P5 = biological target: T6, S1P5 (Homo sapiens, UniProt Q9H228); test: TGFα-shedding assay, S1P5; type: cell-based
T6 construct: expressed in transfected cells; host or cells: HEK293
T6 sequence (Q9H228 whole entry, species assumed): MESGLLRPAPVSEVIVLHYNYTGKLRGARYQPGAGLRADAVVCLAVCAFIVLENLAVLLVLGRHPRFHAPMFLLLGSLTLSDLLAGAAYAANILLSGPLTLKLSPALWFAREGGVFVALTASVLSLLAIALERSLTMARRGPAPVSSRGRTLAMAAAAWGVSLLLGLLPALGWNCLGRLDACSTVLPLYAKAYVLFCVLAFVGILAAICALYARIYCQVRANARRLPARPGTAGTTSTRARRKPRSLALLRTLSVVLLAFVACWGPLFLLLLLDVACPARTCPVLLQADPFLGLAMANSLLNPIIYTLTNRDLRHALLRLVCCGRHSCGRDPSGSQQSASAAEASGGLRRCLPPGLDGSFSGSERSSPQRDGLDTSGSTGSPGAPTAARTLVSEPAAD
Experimental: as §1

S1P2-EGFP = biological target: T7, S1P2-EGFP (Homo sapiens, UniProt O95136); test: Receptor internalization assay, S1P2-EGFP; type: cell-based; settings: 1 μM ligand
T7 construct: expressed in transfected cells
T7 sequence (O95136 whole entry): as the sequence (O95136 whole entry, species assumed) above

S1P3-EGFP = biological target: T8, S1P3-EGFP (Homo sapiens, UniProt Q99500); test: Receptor internalization assay, S1P3-EGFP; type: cell-based; settings: 1 μM ligand
T8 construct: expressed in transfected cells
T8 sequence (Q99500 whole entry): as the sequence (Q99500 whole entry, species assumed) above

C6 rat glioma cells = test: Viability assay (MTT) in C6 cells; type: cell-based; settings: for EC50: vehicle
Experimental: Cell viability was determined by 3-(4,5-dimethylthiazol-2-yl)-2,5-diphenyltetrazolium bromide (MTT) assay as described. Briefly, C6 cells were seeded into 96-well plates at 20,000 cells/well, incubated overnight, serum-starved for 4 h, and treated for 72 hours with cisplatin in the presence of CYM-5478 or vehicle.

[4] = tested on: caspase 3/7 activity in C6 cells; test: Caspase-Glo 3/7 assay in C6 cells; type: cell-based, rat
Experimental: Cells were plated in clear-bottom, black-walled 96-well plates at ~50% confluence, incubated overnight, then treated overnight with cisplatin in the presence of vehicle or 10 μM CYM-5478. Caspase activation was evaluated by Caspase-Glo 3/7 Assay System (Promega Corporation) per manufacturer’s instructions.

C6 cells = test: Cell death assay (propidium iodide exclusion) in C6 cells; type: cell-based, rat
Experimental: Cell death was evaluated by propidium iodide exclusion assay. Cells were plated in 96-well plates at ~50% confluence, incubated overnight, then treated with cisplatin (67 μM) for 24 hours in the presence of vehicle or 10 μM CYM-5478. Cell were treated with Hoechst 33342 (1 mg/ml) and propidium iodide (0.3 mg/ml) for 20 minutes, washed with phosphate-buffered saline, then rapidly photographed with a Cytation 3 automated imager (Biotek Instruments, Inc.). % cell death reflects a ratio of propidium iodide-positive and Hoechst 33342-positive cells.

S1P2 [5] = biological target: T5, S1P2; settings: cited from earlier work
[6] = tested on: other S1P receptor subtypes; test: TGFα-shedding assay, other S1P receptor subtypes (summary statement); type: cell-based; settings: subtypes other than S1P2
Experimental: as §1

Molecule: JTE-013
effect of pre-treatment on CYM-5478-induced cell rounding ([1]; pre-treatment 15 minutes before CYM-5478): similarly abrogated
effect of pre-treatment on S1P-induced cell rounding ([1]; pre-treatment 15 minutes before S1P (1 μM)): completely abrogated
effect on CYM-5478-mediated attenuation of cisplatin-induced ROS (ROS in C6 cells): complete attenuation of CYM-5478 activity
effect on cisplatin-induced ROS (ROS in C6 cells): no effect on cisplatin-induced ROS

Emax (S1P4): 100%
EC50 (S1P4): 175 nM
EC50 (S1P1): 115 nM
Emax (S1P3): 100%
EC50 (S1P3): 55.4 nM
Emax (S1P2 [3]): 100%
Emax (S1P5): 100%
Molecule: CCCCCCCCCCCCC/C=C/[C@@H](O)[C@@H](N)COP(=O)(O)O [S1P, sphingosine 1-phosphate]
internalization of S1P1-EGFP (S1P1-EGFP): largely internalized to cytoplasmic vesicles
cell rounding response [1]: pronounced cytoskeletal rearrangement characterized by process retraction and cell rounding
S1P-dependent reduction of NOX3 ROS, co-transfected S1P1 [2]: not observed
S1P-dependent reduction of NOX3 ROS, co-transfected S1P3 [2]: not observed
effect on NOX3 ROS generation, co-transfected S1P2 [2]: further attenuated
internalization of S1P2-EGFP (S1P2-EGFP): largely internalized to cytoplasmic vesicles
internalization of S1P3-EGFP (S1P3-EGFP): largely internalized to cytoplasmic vesicles

Molecule: c1ccc2c(c1)[I+]c1ccccc1-2 [DPI, diphenyleneiodonium]
effect on cisplatin-induced ROS (ROS in C6 cells): phenocopied

EC50 (C6 rat glioma cells; C6 cells, read-out: EC50 of hydrogen peroxide, + vehicle): 1860 nM
Molecule: OO [H2O2, hydrogen peroxide]

EC50 (S1P4): > 10000 nM
efficacy against the other S1P receptor subtypes [6]: less than 25%
lower potency against the other S1P receptor subtypes vs S1P2 [6]: 10 fold
increase in EC50 of cisplatin conferred by co-administration (C6 rat glioma cells; C6 cells, 10 μM CYM-5478): 3 fold
effect on EC50 of cisplatin in the presence of 1 mM N-acetylcysteine (C6 rat glioma cells; C6 cells, vs vehicle-treated): no significant difference
EC50 (S1P1): 1690 nM
S1P1 Emax (S1P1; relative to S1P): 24.2%
EC50 (S1P3): 1950 nM
S1P3 Emax (S1P3; relative to S1P): 20.8%
EC50 (S1P2 [3]; HEK293 cells, ligand 1 hour): 119 nM
S1P2 Emax (S1P2 [3]; relative to S1P): 99.5%
EC50 (S1P5; HEK293 cells, ligand 1 hour): > 10000 nM
internalization of S1P2-EGFP (S1P2-EGFP): induced the internalization of S1P2-EGFP
Molecule: Cc1cc(C(=O)Cn2cc(C(F)(F)F)ccc2=O)c(C)n1Cc1ccccc1 [CYM-5478]
effect on cisplatin-induced caspase 3/7 activity ([4]; co-administration of 10 μM CYM-5478): markedly attenuated
effect on cisplatin-induced increase in propidium iodide-positive cells (C6 cells; co-administration of 10 μM CYM-5478 with cisplatin 67 μM, 24 hours): attenuated
change in propidium iodide-positive cells, treatment alone (C6 cells; without cisplatin): no significant change
EC50 (S1P2 [5]; Scripps Research Institute Molecular Screening Center HTS, ref http://pubchem.ncbi.nlm.nih.gov/assay/assay.cgi?aid=872, read-out: EC50 in the original screen): 723 nM
EC50 (S1P2 [5]; read-out: EC50 in subsequent validation studies): 780 nM
increase in viability in the presence of 10% fetal bovine serum (C6 rat glioma cells; C6 cells, 10% fetal bovine serum (data not shown)): absent
protection of C6 cells from exogenously administered ROS (hydrogen peroxide) (C6 rat glioma cells; presence vs absence of CYM-5478): equally sensitive
concentrations giving statistically significant, dose dependent increase in viability (C6 rat glioma cells; serum-starved C6 cells, MTT): above 100 nM
cell rounding response [1]: identical rounding response
effect on cisplatin-induced ROS (ROS in C6 cells): significantly attenuated

Molecule: C[C@@H](N)[C@H]1CC[C@H](C(=O)Nc2ccncc2)CC1 [Y-27632]
effect on CYM-5478-mediated attenuation of cisplatin-induced ROS (ROS in C6 cells): complete attenuation of CYM-5478 activity
effect on cisplatin-induced ROS (ROS in C6 cells): no effect on cisplatin-induced ROS

Molecule: CCN(CC)CCCC(C)Nc1nc(C)cc(Nc2ccc3nc(C)cc(N)c3c2)n1 (centres unmarked) [NSC23766]
effect on cisplatin-induced ROS (ROS in C6 cells): phenocopied

Molecule: N.N.[Cl][Pt][Cl] [Cisplatin, cis-Diammineplatinum(II) dichloride]
caspase 3/7 activity ([4]; overnight): significant increase in caspase 3/7 activity
increase in propidium iodide-positive cells (C6 cells; cisplatin 67 μM, 24 hours): > 3 fold
EC50 (C6 rat glioma cells; C6 cells, 72 hours, MTT, read-out: EC50 of cisplatin-mediated reduction in viability, + vehicle): 1340 nM
ROS accumulation (CellROX fluorescence) (ROS in C6 cells; cisplatin 20 μM, 24 hours): increase in ROS

Reference: paper PMC4832229 (Scientific Reports, 2016)
